The values that follow come from US20230373972A1, “PIPERAZINE DERIVATIVE, PREPARATION METHOD THEREFOR AND USE THEREOF” (Zhejiang Hisun Pharmaceutical Co., Ltd., priority 2020, published 2023).

Like-named read-outs stand apart in the source and are kept apart here.

The subject of data set [1] is human plasma. As to the kind of experiment: In-vitro anticoagulation on human plasma (APTT kit, coagulation time). As to conditions: concentration of the compound when the coagulation time (APTT) was prolonged twice.
The nature of data set [2]: Pharmacokinetics in SD rat. Type of data set: in vivo. As to conditions: male, plasma; for AUC(0-t): read-out: Curve area AUC0-t; for half-life: read-out: Half-life period T1/2(h) (converted); for bioavailability: intragastric 10 mg/kg vs injection 1 mg/kg, read-out: Bioavailability F(%); for Cmax: read-out: Blood concentration Cmax. The method, then: Taking a SD rat as a test animal, the SD rat was administrated with the compound of the present invention by intravenous injection and/or intragastric administration, and drug concentrations in plasma at different times were determined by a IC/MS/MS method to study pharmacokinetic characteristics of the compound of the present invention in the SD rat.
SD rats, male, 195 g to 235 g, 6 weeks old to 8 weeks old, purchased from Shanghai JieSiJie Laboratory Animal Co., Ltd.
Preparation of drug administrated by intravenous injection: a proper amount of compound to be tested was added to a proper amount of DMAC; (30% Soltol HS 15): Saline=10%: 10%: 80% (v/v/v), and shaken in a vortex manner, so as to prepare a final solution with a concentration of 0.5 mg/mL.
Preparation of drug administrated by intragastric administration: a proper amount of compound to be tested was added to a proper amount of DMAC: (30% Soltol HS 15): Saline=10%: 10%: 80% (v/v/v), and shaken in a vortex manner, so as to prepare a final solution with a concentration of 1 mg/mL.
SD rats were divided into an intravenous injection group of the compound to be tested (3 rats/group) and an intragastric administration group (3 rats/group) of the compound to be tested.
Intravenous injection group: the drug was administrated by dorsalis pedis vein injection (according to a dosage of 1 mg/kg and a volume of 2 mL/kg) without fasting.
Intragastric administration group: the drug was administrated by intragastric administration (according to a dosage of 10 mg/kg and a volume of 10 mL/kg) after fasting overnight, and food was taken 4 hours after administration.
Intravenous injection group: about 150 μL of blood was collected into an EDTA-K2 anticoagulant tube through a jugular vein 0.083 hour, 0.25 hour, 0.5 hour, 1 hour, 2 hours, 4 hours, 8 hours and 24 hours after administration.
Intragastric administration group; about 150 μL of blood was collected into an EDTA-K2 anticoagulant tube through a jugular vein 0.25 how, 0.5 hour, 1 hour, 2 hours, 4 hours, 8 hours and 24 hours after administration.
The blood sample was stored in wet ice first, and plasma was centrifugally separated within 15 minutes after sampling (centrifugation conditions: 2,000 g, 4° C., 5 minutes). The collected upper plasma was stored at −70° C. before analysis.
Contents of the compound to be tested in rat plasma after intravenous injection and intragastric administration were determined by LC-MS/MS.

For data set [3], the target named is T1, Native human Factor XIa protease (Homo sapiens, UniProt P03951).
T1 construct: The Native human Factor XIa protease was purchased from Abcam; purchased Abcam ab62411
T1 sequence (P03951 388-625 limits assumed): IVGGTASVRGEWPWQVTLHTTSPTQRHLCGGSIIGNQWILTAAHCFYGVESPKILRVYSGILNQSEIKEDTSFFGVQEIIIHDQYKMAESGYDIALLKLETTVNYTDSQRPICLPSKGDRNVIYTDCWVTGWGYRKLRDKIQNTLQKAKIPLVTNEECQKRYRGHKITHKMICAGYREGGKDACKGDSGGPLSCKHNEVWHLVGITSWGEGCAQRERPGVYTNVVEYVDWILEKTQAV
T1 sequence (P03951 19-387 partner limits assumed): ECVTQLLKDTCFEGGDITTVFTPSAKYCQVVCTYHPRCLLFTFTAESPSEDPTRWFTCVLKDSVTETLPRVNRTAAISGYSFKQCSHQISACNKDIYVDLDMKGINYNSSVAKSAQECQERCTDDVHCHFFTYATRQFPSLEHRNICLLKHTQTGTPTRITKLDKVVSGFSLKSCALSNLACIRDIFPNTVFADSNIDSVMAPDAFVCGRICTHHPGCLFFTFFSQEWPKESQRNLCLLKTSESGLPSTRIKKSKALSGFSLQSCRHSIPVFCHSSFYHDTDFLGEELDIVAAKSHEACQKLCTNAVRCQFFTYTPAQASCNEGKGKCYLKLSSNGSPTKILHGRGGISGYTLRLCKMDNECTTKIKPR
Kind of data set: Inhibition of activity of Factor XIa protease (chromogenic substrate S-2366). Type of data set: biochemical. As to conditions: S-2366 1 mM, 37° C. 10 minutes, absorption at 405 nm. In a few lines: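 Native human Factor XIa (final […]) in 100 mM Tris-HCl, 200 mM NaCl, 0.02% Tween 20, pH 7.4, preincubated with compound 5 min on ice; 1 mM S-2366 added, 10 min at 37° C. Absorbance at 405 nm versus 0.1% DMSO control; IC50 by nonlinear regression, compound 10,000 nM to […] final.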

Setting [4] is: iv, injection administration 1 mg/kg.
The mark [5] stands for this setting: po, intragastric administration 10 mg/kg.

Turning to `Cn1cc2cc(NC(=O)C(Cc3ccc(F)cc3)N3CC(=O)N(c4cc(Cl)ccc4-n4cc(Cl)nn4)CC3=O)ccc2n1` (stereo in doubt) [Example 99, (R)-2-(4-(5-chloro-2-(4-chloro-1H-1,2,3-triazol-1-yl)phenyl)-2,5-dioxopiperazin-1-yl)-3-(4-fluorophenyl)-N-(2-methyl-2H-indazol-5-yl)propanamide], the “CT2” value in data set [1] stood at 6.9 µM. Further, in data set [2] (setting [4]), the AUC(0-t) is 326 ± 61.2 ng·h/mL and the half-life is 0.595 ± 0.222 h. Further, the bioavailability in data set [2] (po) is 149 ± 48.1%. For the same compound, in data set [2] (setting [5]), the Cmax stood at 1100 ± 498 ng/mL, the AUC(0-t) turned out to be 4850 ± 1570 ng·h/mL and the half-life is 0.994 h. Further, 24.4 nM corresponded to half-maximal inhibition in data set [3] (IC50).

As for `Cn1cc2cc(NC(=O)C(Cc3ccccc3)N3CC(=O)N(c4cc(Cl)ccc4-n4cc(Cl)nn4)CC3=O)ccc2n1` (stereo not drawn) [Example 25, 2-(4(5-chloro-2-(4-chloro-1H-1,2,3-triazol-1-yl)phenyl)-2,5-dioxopiperazin-1-yl)-N-(2-methyl-2H-indazol-5-yl)-3-phenylpropanamide], the “CT2” value in data set [1] turned out to be 6.6 µM. In data set [2] (setting [4]), the AUC(0-t) came out at 431 ± 117 ng·h/mL and the half-life is 0.818 ± 0.37 h. Further, the bioavailability in data set [2] (po) amounted to 80.4 ± 28.5%. Also, in data set [2] (setting [5]), the Cmax came out at 1390 ± 521 ng/mL, the AUC(0-t) turned out to be 3460 ± 1230 ng·h/mL and the half-life is 0.895 ± 0.0751 h. In data set [3], the IC50 (usually the concentration that gives 50% inhibition) worked out at 14.8 nM.

For the compound `NC(=O)c1ccc(NC(=O)C(Cc2ccccc2)N2CC(=O)N(c3cc(Cl)ccc3-n3cc(Cl)nn3)CC2=O)cc1F` (stereo not drawn) [Example 36, 4-(2-(4-(5-chloro-2-(4-chloro-1H-1,2,3-triazol-1-yl)phenyl)-2,5-dioxopiperazin-1-yl)-3-phenylpropanamido)-2-fluorobenzamide], the “CT2” value in data set [1] was 15.9 µM. Further, in data set [2] (setting [5]), the Cmax is 798 ± 868 ng/mL, the AUC(0-t) was 2190 ± 2750 ng·h/mL and the half-life is 1.15 ± 0.0495 h. Also, the IC50 in data set [3] was 27.1 nM.

For `COCCC(C(=O)Nc1ccc2nn(C)cc2c1)N1CC(=O)N(c2cc(Cl)ccc2-n2cc(Cl)nn2)CC1=O` (stereo not drawn) [Example 38, 2-(4-(5-Chloro-2-(4-chloro-1H-1,2,3-triazol-1-yl)phenyl)-2,5-dioxopiperazin-1-yl)-4-methoxy-N-(2-methyl-2H-indazol-5-yl)butanamide], the “CT2” value in data set [1] was determined as 19.0 µM. For the same compound, in data set [2] (setting [5]), the Cmax was 1360 ± 564 ng/mL, the AUC(0-t) amounted to 3080 ± 281 ng·h/mL and the half-life is 2.63 ± 0.172 h. In data set [3], this compound yielded an IC50 of 61.4 nM.

Consider `O=C(Nc1ccc2nn(C(F)F)cc2c1)C(Cc1ccccc1)N1CC(=O)N(c2cc(Cl)ccc2-n2cc(Cl)nn2)CC1=O` (stereo not drawn) [Example 45, 2-(4-(5-Chloro-2-(4-chloro-1H-1,2,3-triazol-1-yl)phenyl)-2,5-dioxopiperazin-1-yl)-N-(2-(difluoromethyl)-2H-indazol-5-yl)-3-phenylpropanamide], for which, in data set [1], the “CT2” value is 11.3 µM. In addition, in data set [2] (setting [5]), the Cmax stood at 1170 ± 576 ng/mL, the AUC(0-t) is 4710 ± 2120 ng·h/mL and the half-life was 2.04 ± 1.08 h. This compound yielded an IC50 in data set [3] of 19.1 nM.

Turning to `Cn1cc2cc(NC(=O)C(Cc3ccc(F)cc3)N3CC(=O)N(c4cc(Cl)ccc4-n4cc(Cl)nn4)CC3=O)ccc2n1` (stereo not drawn) [Example 47, 2-(4-(5-Chloro-2-(4-chloro-1H-1,2,3-triazol-1-yl)phenyl)-2,5-dioxopiperazin-1-yl)-3-(4-fluorophenyl)-N-(2-methyl-2H-indazol-5-yl)propanamide], the “CT2” value in data set [1] is 9.3 µM. In addition, in data set [2] (setting [5]), the Cmax is 2860 ± 268 ng/mL, the AUC(0-t) was 12200 ± 3190 ng·h/mL and the half-life is 2.13 ± 0.18 h. Also, the IC50 in data set [3] is 45.2 nM.

As to `Cn1ccc(CC(C(=O)Nc2ccc3nn(C)cc3c2)N2CC(=O)N(c3cc(Cl)ccc3-n3cc(Cl)nn3)CC2=O)n1` (stereo not drawn) [Example 111, 2-(4-(5-chloro-2-(4-chloro-1H-1,2,3-triazol-1-yl)phenyl)-2,5-dioxopiperazin-1-yl)-3-(1-methyl-1H-pyrazol-3-yl)-N-(2-methyl-2H-indazol-5-yl)propanamide], in data set [1], the “CT2” value amounted to 19.6 µM. Further, in data set [2] (setting [5]), the Cmax stood at 1420 ± 703 ng/mL, the AUC(0-t) came out at 2560 ± 409 ng·h/mL and the half-life was 2.37 ± 1.21 h. In data set [3], this compound returned an IC50 of 45.3 nM.

For `Cn1ccc(C[C@H](C(=O)Nc2ccc3nn(C)cc3c2)N2CC(=O)N(c3cc(Cl)ccc3-n3cc(Cl)nn3)CC2=O)n1` [Example 113, (R)-2-(4-(5-chloro-2-(4-chloro-1H-1,2,3-triazol-1-yl)phenyl)-2,5-dioxopiperazin-1-yl)-3-(1-methyl-1H-pyrazol-3-yl)-N-(2-methyl-2H-indazol-5-yl)propanamide], in data set [2] (setting [4]), the AUC(0-t) was found to be 552 ± 108 ng·h/mL and the half-life was 0.5 ± 0.0254 h. In data set [2] (po), the bioavailability was 54.7 ± 46%. For the same compound, in data set [2] (setting [5]), the Cmax amounted to 3420 ± 2350 ng/mL, the AUC(0-t) turned out to be 3020 ± 2540 ng·h/mL and the half-life is 1.38 ± 0.297 h.

As for `Cn1cc2cc(NC(=O)C(CC3CCCCO3)N3CC(=O)N(c4cc(Cl)ccc4-n4cc(Cl)nn4)CC3=O)ccc2n1` (stereo not drawn) [Example 117, 2-(4-(5-Chloro-2-(4-chloro-1H-1,2,3-triazol-1-yl)phenyl)-2,5-dioxopiperazin-1-yl)-N-(2-methyl-2H-indazol-5-yl)-3-(tetrahydro-2H-pyran-2-yl)propanamide], the “CT2” value in data set [1] turned out to be 6.3 µM. For the same compound, in data set [2] (setting [5]), the Cmax is 2220 ± 552 ng/mL, the AUC(0-t) stood at 3940 ± 984 ng·h/mL and the half-life was 0.735 ± 0.0242 h.
